Measured values reported in patent US9115137B2, “2,3,4,5-tetrahydro-1H-pyrido[4,3-B]indole compounds and methods of use thereof” (priority 2008, dated 2015).

system: rat central imidazoline I2 receptor; experiment: Central imidazoline I2 radioligand binding ([3H]Idazoxan); settings: compound at 1 μM; Wistar Rat cerebral cortex
Experimental: To evaluate in radioligand binding assays the activity of compounds of the invention, rat central imidazoline I2 receptor obtained from Wistar Rat cerebral cortex (Brown, C. M. et al., Br. J. Pharmacol. 99:803, 1990) in a modified Tris-HCl buffer (50 mM Tris-HCl buffer, pH 7.4, 0.5 mM EDTA) was used. Compounds of the invention were incubated with 2 nM [^3H]Idazoxan for 30 minutes at 25° C. Non-specific binding was estimated in the presence of 1 μM Idazoxan. Receptor proteins were filtered and washed, the filters were then counted to determine [^3H]Idazoxan specifically bound. Compounds were screened at 1 μM or lower, using 1% DMSO as vehicle. Compounds of the invention were tested in this biochemical assay and percent inhibition of specific binding was determined. Biochemical assay results are presented as the percent inhibition of specific binding in Table 5.

Row | Compound | Imidazoline I2 Central (1 μM), percent inhibition of specific binding
1 | CCOC(=O)CCn1c2c(c3cc(Cl)ccc31)CN(C)CC2 [CD17, ethyl 3-(8-chloro-1,2,3,4-tetrahydro-2-methylpyrido[4,3-b]indol-5-yl)propanoate] | 62%
2 | CN1CCc2c(c3cc(Cl)ccc3n2CC(=O)O)C1 [CD46, 2-(8-chloro-1,2,3,4-tetrahydro-2-methylpyrido[4,3-b]indol-5-yl)acetic acid] | 28%
3 | Cc1ccc2c(c1)c1c(n2CCC(=O)O)CCN(C)C1 [CD47, 3-(1,2,3,4-tetrahydro-2,8-dimethylpyrido[4,3-b]indol-5-yl)propanoic acid] | 3%
4 | CN1CCc2c(c3cc(Cl)ccc3n2CCC(=O)O)C1 [CD55, 3-(8-chloro-1,2,3,4-tetrahydro-2-methylpyrido[4,3-b]indol-5-yl)propanoic acid] | 3%
5 | Cc1ccc2c(c1)c1c(n2CC(=O)O)CCN(C)C1 [CD58, 2-(1,2,3,4-tetrahydro-2,8-dimethylpyrido[4,3-b]indol-5-yl)acetic acid] | 3%
6 | Cc1ccc2c(c1)c1c(n2CCN)CCN(C)C1 [CD62, 2-(1,2,3,4-tetrahydro-2,8-dimethylpyrido[4,3-b]indol-5-yl)ethanamine] | 13%
7 | CCOC(=O)Cn1c2c(c3cc(Cl)ccc31)CN(C)CC2 [Compound 10, ethyl 2-(8-chloro-1,2,3,4-tetrahydro-2-methylpyrido[4,3-b]indol-5-yl)acetate] | 25%
8 | CC(C)OC(=O)Cn1c2c(c3cc(Cl)ccc31)CN(C)CC2 [Compound 11, isopropyl 2-(8-chloro-1,2,3,4-tetrahydro-2-methylpyrido[4,3-b]indol-5-yl)acetate] | 5%
9 | CN1CCc2c(c3cc(Cl)ccc3n2CC(=O)OCc2ccccc2)C1 [Compound 13, benzyl 2-(8-chloro-1,2,3,4-tetrahydro-2-methylpyrido[4,3-b]indol-5-yl)acetate] | 16%
10 | CN1CCc2c(c3cc(Cl)ccc3n2CC(=O)OC2CCCC2)C1 [Compound 15] | 23%
11 | CCNC(=O)Cn1c2c(c3cc(C)ccc31)CN(C)CC2 [Compound 22, N-ethyl-2-(1,2,3,4-tetrahydro-2,8-dimethylpyrido[4,3-b]indol-5-yl)acetamide] | 51%
12 | Cc1ccc2c(c1)c1c(n2CC(=O)NC(C)C)CCN(C)C1 [Compound 23, 2-(1,2,3,4-tetrahydro-2,8-dimethylpyrido[4,3-b]indol-5-yl)-N-isopropylacetamide] | 1%
13 | Cc1ccc2c(c1)c1c(n2CC(=O)NCc2ccccc2)CCN(C)C1 [Compound 25, N-benzyl-2-(1,2,3,4-tetrahydro-2,8-dimethylpyrido[4,3-b]indol-5-yl)acetamide] | 18%
14 | CN1CCc2c(c3cc(Cl)ccc3n2CC(=O)NC2CCCC2)C1 [Compound 27, 2-(8-chloro-1,2,3,4-tetrahydro-2-methylpyrido[4,3-b]indol-5-yl)-N-cyclopentylacetamide] | 8%
15 | Cc1ccc2c(c1)c1c(n2CCC(=O)NCC2CCCCC2)CCN(C)C1 [Compound 30, N-(cyclohexylmethyl)-3-(1,2,3,4-tetrahydro-2,8-dimethylpyrido[4,3-b]indol-5-yl)propanamide] | 61%
16 | CN1CCc2c(c3cc(Cl)ccc3n2CCC(=O)NC2CCCC2)C1 [Compound 31, 3-(8-chloro-1,2,3,4-tetrahydro-2-methylpyrido[4,3-b]indol-5-yl)-N-cyclopentylpropanamide] | 33%
17 | CN1CCc2c(c3cc(Cl)ccc3n2CC(N)=O)C1 [Compound 45, 2-(8-chloro-1,2,3,4-tetrahydro-2-methylpyrido[4,3-b]indol-5-yl)acetamide] | 24%
18 | Cc1ccc2c(c1)c1c(n2CCC(=O)Nc2ccc(F)cc2)CCN(C)C1 [Compound 47, N-(4-fluorophenyl)-3-(1,2,3,4-tetrahydro-2,8-dimethylpyrido[4,3-b]indol-5-yl)propanamide] | 47%
19 | CN1CCc2c(c3cc(Cl)ccc3n2CC(=O)N(C)C)C1 [Compound 48, 2-(8-chloro-1,2,3,4-tetrahydro-2-methylpyrido[4,3-b]indol-5-yl)-N,N-dimethylacetamide] | 18%
20 | CN1CCc2c(c3cc(Cl)ccc3n2CCC(=O)N(C)C)C1 [Compound 49, 3-(8-chloro-1,2,3,4-tetrahydro-2-methylpyrido[4,3-b]indol-5-yl)-N,N-dimethylpropanamide] | 58%
21 | Cc1ccc2c(c1)c1c(n2CCNC(=O)c2ccncc2)CCN(C)C1 [Compound 50, N-(2-(1,2,3,4-tetrahydro-2,8-dimethylpyrido[4,3-b]indol-5-yl)ethyl)isonicotinamide] | 24%
22 | Cc1ccc2c(c1)c1c(n2CC(=O)Nc2ccc(F)cc2)CCN(C)C1 [Compound 51, N-(4-fluorophenyl)-2-(1,2,3,4-tetrahydro-2,8-dimethylpyrido[4,3-b]indol-5-yl)acetamide] | 12%
23 | CCCCOC(=O)Cn1c2c(c3cc(Cl)ccc31)CN(C)CC2 [Compound 52, butyl 2-(8-chloro-1,2,3,4-tetrahydro-2-methylpyrido[4,3-b]indol-5-yl)acetate] | 14%
24 | Cc1ccc2c(c1)c1c(n2CCC(=O)NCc2ccccc2)CCN(C)C1 [Compound 59, N-benzyl-3-(1,2,3,4-tetrahydro-2,8-dimethylpyrido[4,3-b]indol-5-yl)propanamide] | 64%
25 | CN1CCc2c(c3cc(Cl)ccc3n2CC(=O)NC2CCCCC2)C1 [Compound 60, 2-(8-chloro-1,2,3,4-tetrahydro-2-methylpyrido[4,3-b]indol-5-yl)-N-cyclohexylacetamide] | 6%
26 | Cc1ccc2c(c1)c1c(n2CCNC(=O)C(C)C)CCN(C)C1 [Compound 61, N-(2-(1,2,3,4-tetrahydro-2,8-dimethylpyrido[4,3-b]indol-5-yl)ethyl)isobutyramide] | 40%
27 | Cc1ccc2c(c1)c1c(n2CCNC(=O)C2CCCCC2)CCN(C)C1 [Compound 62, N-(2-(1,2,3,4-tetrahydro-2,8-dimethylpyrido[4,3-b]indol-5-yl)ethyl)cyclohexanecarboxamide] | 42%
28 | Cc1ccc2c(c1)c1c(n2CCNC(=O)c2ccc(F)cc2Cl)CCN(C)C1 [Compound 63, 2-chloro-4-fluoro-N-(2-(1,2,3,4-tetrahydro-2,8-dimethylpyrido[4,3-b]indol-5-yl)ethyl)benzamide] | 41%
29 | Cc1ccc2c(c1)c1c(n2CC(N)=O)CCN(C)C1 [Compound 64, 2-(1,2,3,4-tetrahydro-2,8-dimethylpyrido[4,3-b]indol-5-yl)acetamide] | 16%
30 | Cc1ccc2c(c1)c1c(n2CCNC(=O)C2CCNCC2)CCN(C)C1 [Compound 65, N-(2-(1,2,3,4-tetrahydro-2,8-dimethylpyrido[4,3-b]indol-5-yl)ethyl)piperidine-4-carboxamide] | 23%

molecular target: T1, human recombinant serotonin (5-Hydroxytryptamine) 5-HT2A receptor (Homo sapiens, UniProt P28223); experiment: Serotonin 5-HT2A radioligand binding ([3H]Ketanserin); settings: compound at 1 μM; CHO-K1 cells; read-out: Serotonin (1 μM) 5-HT2A, percent inhibition of specific binding
T1 construct: expressed in transfected cells; host or cells: CHO-K1 cells
T1 sequence (P28223 whole entry): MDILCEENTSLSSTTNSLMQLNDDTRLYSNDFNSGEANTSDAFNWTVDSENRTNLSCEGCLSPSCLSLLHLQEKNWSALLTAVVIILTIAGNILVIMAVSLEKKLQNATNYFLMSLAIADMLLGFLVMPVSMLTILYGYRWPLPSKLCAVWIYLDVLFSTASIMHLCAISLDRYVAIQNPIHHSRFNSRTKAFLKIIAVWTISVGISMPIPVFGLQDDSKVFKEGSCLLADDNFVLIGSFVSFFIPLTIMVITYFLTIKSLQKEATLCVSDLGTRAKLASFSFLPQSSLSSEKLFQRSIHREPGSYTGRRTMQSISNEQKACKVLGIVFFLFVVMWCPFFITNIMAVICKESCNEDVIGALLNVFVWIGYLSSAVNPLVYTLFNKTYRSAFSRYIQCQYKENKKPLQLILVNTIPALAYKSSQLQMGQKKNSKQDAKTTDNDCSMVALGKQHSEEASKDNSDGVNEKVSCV
Experimental: To evaluate in radioligand binding assays the activity of compounds of the invention, human recombinant serotonin (5-Hydroxytryptamine) 5-HT2A receptor expressed in Chinese hamster ovary (CHO-K1) cells (Bonhaus, D. W. et al. Br. J. Pharmacol. 115:622, 1995; Saucier, C. and Albert, P. R., J. Neurochem. 68:1998, 1997) in a 50 mM Tris-HCl buffer, pH 7.4, was used. Compounds of the invention were incubated with 0.5 nM [^3H]Ketanserin for 60 minutes at 25° C. Non-specific binding was estimated in the presence of 1 μM Mianserin. Receptor proteins were filtered and washed, the filters were then counted to determine [^3H] Ketanserin specifically bound. Compounds were screened at 1 μM or lower, using 1% DMSO as vehicle. Biochemical assay results are presented as the percent inhibition of specific binding in Table 7.

Row | Compound | inhibition at 1 µM
31 | CCOC(=O)Cn1c2c(c3cc(C)ccc31)CN(C)CC2 [CD57, ethyl 2-(1,2,3,4-tetrahydro-2,8-dimethylpyrido[4,3-b]indol-5-yl)acetate] | 92%
32 | CN1CCc2c(c3cc(Cl)ccc3n2CCCO)C1 [CD87, 3-(8-chloro-2-methyl-3,4-dihydro-1H-pyrido[4,3-b]indol-5(2H)-yl)propan-1-ol] | 66%
33 | CN1CCc2c(c3cc(Cl)ccc3n2CCO)C1 [CD89, 2-(8-chloro-2-methyl-3,4-dihydro-1H-pyrido[4,3-b]indol-5(2H)-yl)ethanol] | 70%
34 | Cc1ccc2c(c1)c1c(n2CCO)CCN(C)C1 [CD90, 2-(2,8-dimethyl-3,4-dihydro-1H-pyrido[4,3-b]indol-5(2H)-yl)ethanol] | 58%
35 | Cc1ccc2c(c1)c1c(n2CCBr)CCN(C)C1 [CD91, 5-(2-bromoethyl)-2,8-dimethyl-2,3,4,5-tetrahydro-1H-pyrido[4,3-b]indole] | 96%

same assay, conditions: read-out: Serotonin (1 μM) 5-HT2A, percent inhibition of specific binding

Row | Compound | inhibition at 1 µM
36 | CN1CCc2c(c3cc(Cl)ccc3n2CCBr)C1 [CD88, 5-(2-bromoethyl)-8-chloro-2-methyl-2,3,4,5-tetrahydro-1H-pyrido[4,3-b]indole] | 98%
